Molecular target: T1, Human Polθ polymerase domain (aa1820-2590) (Homo sapiens, UniProt O75417)
T1 construct: Human Polθ polymerase domain (aa1820-2590) was expressed in E. coli; made in house; host or cells: E. coli
T1 sequence (O75417 1820-2590): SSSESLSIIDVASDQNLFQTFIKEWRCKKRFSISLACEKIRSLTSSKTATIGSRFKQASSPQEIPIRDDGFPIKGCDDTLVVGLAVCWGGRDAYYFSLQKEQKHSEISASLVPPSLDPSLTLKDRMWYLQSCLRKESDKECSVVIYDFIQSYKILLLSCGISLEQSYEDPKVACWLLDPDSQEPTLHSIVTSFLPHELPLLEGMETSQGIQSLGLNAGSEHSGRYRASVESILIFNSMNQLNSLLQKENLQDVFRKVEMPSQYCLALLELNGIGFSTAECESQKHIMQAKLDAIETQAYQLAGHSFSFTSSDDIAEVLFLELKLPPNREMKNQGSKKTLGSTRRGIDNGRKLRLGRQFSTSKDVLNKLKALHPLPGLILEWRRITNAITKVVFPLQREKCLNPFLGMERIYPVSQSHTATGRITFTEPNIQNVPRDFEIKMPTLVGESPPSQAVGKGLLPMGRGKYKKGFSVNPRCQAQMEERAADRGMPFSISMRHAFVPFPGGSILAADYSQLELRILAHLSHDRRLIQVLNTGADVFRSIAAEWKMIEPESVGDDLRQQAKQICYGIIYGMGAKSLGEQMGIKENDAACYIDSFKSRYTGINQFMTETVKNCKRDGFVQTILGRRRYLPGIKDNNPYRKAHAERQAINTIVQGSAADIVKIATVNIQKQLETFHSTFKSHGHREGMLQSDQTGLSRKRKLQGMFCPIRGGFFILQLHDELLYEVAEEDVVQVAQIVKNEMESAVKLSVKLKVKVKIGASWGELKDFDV
Experiment: Polθ Polymerase Domain Kinact/KI Assay (PicoGreen)
Format: biochemical
Conditions: 0.8 nM Polθ, 100 nM DNA substrate, kobs vs [I] fit for 2-step covalent inhibitor
Outline: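 Covalent inhibitors were tested against E. coli-expressed enzyme (0.8 nM final) with 100 nM annealed DNA substrate and […] in Tris pH 7.5 buffer, 1% DMSO. Reactions were EDTA-quenched over a 0–60 min time course and product DNA detected by PicoGreen fluorescence.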

Kinact/Kl | SMILES
1.15 µM⁻¹ s⁻¹ | C=C(CN(C)C)C(=O)N[C@@H]1CCn2cc(CN3C[C@H]4CC(=O)N(c5cc(C(F)(F)F)cc(C)n5)[C@@H]4C(=O)N(C)c4cccc(C)c43)nc2C1 (racemic) [Example 330b, N-((R/S)-2-(((3aR, 11aS)-6,10-dimethyl-1-(6-methyl-4-(trifluoromethyl)pyr-idin-2-yl)-2,11-dioxo-1,2,3,3a,4,10,11,11a-octahydro-5H-benzo [b]pyrrolo[2,3-f][1,4]diazocin-5-yl)meth-yl)-5,6,7,8-tetrahydro-imidazo[1,2-a]pyridin-7-yl)-2-((dimethyl-amino)methyl)acryl-amide]
0.024 µM⁻¹ s⁻¹ | C=CC(=O)N1CCN(c2cc(N3C[C@H]4CC(=O)N(c5cc(C(F)(F)F)cc(C)n5)[C@@H]4C(=O)N(C)c4cccc(F)c43)ccn2)CC1 [Example 53, (3aR,11aS)-5-(2-(4-acryloylpiperazin-1-yl)pyridin-4-yl)-6-fluoro-10-methyl-1-(6-methyl-4-(trifluoromethyl)pyridin-2-yl)-1,3a,4,5,10,11a-hexahydro-2H-benzo[b]pyrrolo[2,3-f][1,4]diazocine-2,11(3H)-dione]
1.47 µM⁻¹ s⁻¹ | C=CC(=O)N1CC(c2nc(CN3C[C@H]4CC(=O)N(c5cc(C(F)(F)F)cc(C)n5)[C@@H]4C(=O)N(C)c4cccc(F)c43)no2)C1 [Example 101, (3aR,11aS)-5-((5-(1-acryloylazetidin-3-yl)-1,2,4-oxadiazol-3-yl)methyl)-6-fluoro-10-methyl-1-(6-methyl-4-(trifluoromethyl)pyridin-2-yl)-1,3a,4,5,10,11a-hexahydro-2H-benzo[b]pyrrolo[2,3-f][1,4]diazocine-2,11(3H)-dione]
0.37 µM⁻¹ s⁻¹ | Cc1cc(C(F)(F)F)cc(N2C(=O)C[C@@H]3CN(Cc4ccc5c(c4)N(C(=O)/C=C/CN(C)C)CCO5)c4c(Cl)cccc4N(C)C(=O)[C@H]32)n1 [Example 251, (3aR,11aS)-6-chloro-5-((4-((E)-4-(dimethylamino)but-2-enoyl)-3,4-dihydro-2H-benzo[b][1,4]oxazin-6-yl)methyl)-10-methyl-1-(6-methyl-4-(trifluoromethyl)pyridin-2-yl)-1,3a,4,5,10,11a-hexahydro-2H-benzo[b]pyrrolo[2,3-f][1,4]diazocine-2,11(3H)-dione]
0.21 µM⁻¹ s⁻¹ | C=CC(=O)N1CC(N2CCN(C(=O)CN3C[C@H]4CC(=O)N(c5cc(C(F)(F)F)cc(C)n5)[C@@H]4C(=O)N(C)c4cccc(F)c43)CC2)C1 [Example 51, (3aR,11aS)-5-(2-(4-(1-acryloylazetidin-3-yl)piperazin-1-yl)-2-oxoethyl)-6-fluoro-10-methyl-1-(6-methyl-4-(trifluoromethyl)pyridin-2-yl)-1,3a,4,5,10,11a-hexahydro-2H-benzo[b]pyrrolo[2,3-f][1,4]diazocine-2,11(3H)-dione]
2.48 µM⁻¹ s⁻¹ | C=CC(=O)N1Cc2cc(CN3C[C@H]4CC(=O)N(c5cc(C(F)(F)F)cc(C)n5)[C@@H]4C(=O)N(C)c4cccc(Cl)c43)nn2C[C@@H]1C (racemic) [Example 294b, (3aR,11aS)-5-(((S/R)-5-acryloyl-6-methyl-4,5,6,7-tetrahydropyrazolo[1,5-a]pyrazin-2-yl)methyl)-6-chloro-10-methyl-1-(6-methyl-4-(trifluoromethyl)pyridin-2-yl)-1,3a,4,5,10,11a-hexahydro-2H-benzo[b]pyrrolo[2,3-f][1,4]diazocine-2,11(3H)-dione]
3.23 µM⁻¹ s⁻¹ | C=C(CN(C)C)C(=O)N1CC(c2ccc(CN3C[C@H]4CC(=O)N(c5cc(C(F)(F)F)cc(C)n5)[C@@H]4C(=O)N(C)c4cccc(C)c43)cc2)C1 [Example 186, (3aR,11aS)-5-(4-(1-(2-((dimethyl-amino)methyl)-acryloyl)azetidin-3-yl)benzyl)-6,10-dimethyl-1-(6-methyl-4-(trifluoro-methyl)pyridin-2-yl)-1,3a,4,5,10,11a-hexahydro-2H-benzo[b]pyrrolo [2,3-f][1,4]diazo-cine-2,11(3H)-dione]

— patent publication US20250230165A1, “HETEROCYCLIC COMPOUNDS FOR USE IN THE TREATMENT OF CANCER” (ARTIOS PHARMA LIMITED, priority 2021, published 2025)
